Measurements taken from US20200024278A1, “COMPOSITION COMPRISING ANTIBIOTIC COMPOUND AND AN HETEROCYCLIC COMPOUND AND THEIR USE IN PREVENTING OR TREATING BACTERIAL INFECTIONS” (MUTABILIS, priority 2016, published 2020).
Where two headings read alike, the source gives them in different places.

What was measured:
Experiment in all cases: MIC, broth microdilution (CLSI), substance alone or ATB combined with compound at 4 or 8 μg/mL
ECL P99 = assay type: cell-based, E. cloacae; settings: for MIC: Enterobacter cloacae
In short: (§1)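 Per CLSI-M7-A7, MICs are determined in cation-adjusted Mueller-Hinton broth with a final inoculum of 5·10^5 CFU/mL. Plates incubate 16-20 h at 35° C in air and are read by eye. Fosfomycin assays carry 25 μg/ml glucose-6-phosphate.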

PAE 105250 = assay type: cell-based, P. aeruginosa; settings: PAE 105250
In short: as §1

PAE UFR48 = assay type: cell-based, P. aeruginosa; settings: PAE UFR48
In short: as §1

PAE UFR90 = assay type: cell-based, P. aeruginosa; settings: PAE UFR90
In short: as §1

SAU 29213 = assay type: cell-based, S. aureus; settings: SAU 29213
In short: as §1

SPN 49619 = assay type: cell-based, S. pneumoniae; settings: SPN 49619
In short: as §1

[1] = Pseudomonas aeruginosa, antibiotic alone, read-out: MIC ATB alone

For `C=CC1=C(C(=O)O)N2C(=O)[C@@H](NC(=O)/C(=N\OCC(=O)O)c3csc(N)n3)[C@H]2SC1` [FIX, Cefixime, reference compound], the “MIC ATB combined with Example 9 @4 μg/ml” value (ECL P99; ECL P99, with Example 9 at 4 μg/ml) was <0.031 µg/mL, the “MIC ATB combined with Example 11 @8 μg/ml” value (ECL P99; ECL P99, with Example 11 at 8 μg/ml) was <0.031 µg/mL and the “MIC ATB combined with Example 12 @8 μg/ml” value (ECL P99; ECL P99, with Example 12 at 8 μg/ml) was <0.031 µg/mL. The “MIC ATB combined with Example 13 @8 μg/ml” value (ECL P99; ECL P99, with Example 13 at 8 μg/ml) was 8 µg/mL, the “MIC ATB combined with Example 14 @8 μg/ml” value (ECL P99; ECL P99, with Example 14 at 8 μg/ml) was <0.031 µg/mL and the “MIC ATB combined with Example 15 @4 μgml” value (ECL P99; ECL P99, with Example 15 at 4 μg/ml) was <0.031 µg/mL. The “MIC ATB combined with Example 16 @4 μg/ml” value (ECL P99; ECL P99, with Example 16 at 4 μg/ml) was <0.031 µg/mL, the MIC (ECL P99) was > 128 µg/mL and the MIC (ECL P99; ECL P99, antibiotic alone, read-out: MIC ATB alone) was > 512 µg/mL. The “MIC ATB combined with Example 1 @8 μg/ml” value (PAE 105250; with Example 1 @8 μg/ml) was <0.031 µg/mL, the “MIC ATB combined with Example 1 @8 μg/ml” value (PAE 105250; with Example 1 at 8 μg/ml) was <0.031 µg/mL and the “MIC ATB combined with Example 7 @8 μgml” value (PAE 105250; with Example 7 at 8 μg/ml) was >32 µg/mL. For the same compound, the “MIC ATB combined with Example 9 @4 μg/ml” value (PAE 105250; with Example 9 @4 μg/ml) was >32 µg/mL, the “MIC ATB combined with Example 9 @4 μg/ml” value (PAE 105250; with Example 9 at 4 μg/ml) was >32 µg/mL and the “MIC ATB combined with Example 11 @8 μg/ml” value (PAE 105250; with Example 11 at 8 μg/ml) was >32 µg/mL. For the same compound, the “MIC ATB combined with Example 12 @8 μg/ml” value (PAE 105250; with Example 12 at 8 μg/ml) was >32 µg/mL, the “MIC ATB combined with Example 13 @8 μg/ml” value (PAE 105250; with Example 13 at 8 μg/ml) was >32 µg/mL and the “MIC ATB combined with Example 14 @8 μg/ml” value (PAE 105250; with Example 14 at 8 μg/ml) was >32 µg/mL. For the same compound, the “MIC ATB combined with Example 15 @4 μgml” value (PAE 105250; with Example 15 at 4 μg/ml) was >32 µg/mL, the “MIC ATB combined with Example 16 @4 μg/ml” value (PAE 105250; with Example 16 at 4 μg/ml) was >32 µg/mL and the MIC (PAE 105250; [1]) was > 512 µg/mL. For the same compound, the “MIC ATB combined with Example 1 @8 μg/ml” value (PAE UFR48; with Example 1 @8 μg/ml) was <0.031 µg/mL, the “MIC ATB combined with Example 1 @8 μg/ml” value (PAE UFR48; with Example 1 at 8 μg/ml) was <0.031 µg/mL and the “MIC ATB combined with Example 7 @8 μgml” value (PAE UFR48; with Example 7 at 8 μg/ml) was >32 µg/mL. For the same compound, the “MIC ATB combined with Example 9 @4 μg/ml” value (PAE UFR48; with Example 9 @4 μg/ml) was >32 µg/mL, the “MIC ATB combined with Example 9 @4 μg/ml” value (PAE UFR48; with Example 9 at 4 μg/ml) was >32 µg/mL and the “MIC ATB combined with Example 11 @8 μg/ml” value (PAE UFR48; with Example 11 at 8 μg/ml) was >32 µg/mL. For the same compound, the “MIC ATB combined with Example 12 @8 μg/ml” value (PAE UFR48; with Example 12 at 8 μg/ml) was >32 µg/mL, the “MIC ATB combined with Example 13 @8 μg/ml” value (PAE UFR48; with Example 13 at 8 μg/ml) was >32 µg/mL and the “MIC ATB combined with Example 14 @8 μg/ml” value (PAE UFR48; with Example 14 at 8 μg/ml) was >32 µg/mL. For the same compound, the “MIC ATB combined with Example 15 @4 μgml” value (PAE UFR48; with Example 15 at 4 μg/ml) was >32 µg/mL, the “MIC ATB combined with Example 16 @4 μg/ml” value (PAE UFR48; with Example 16 at 4 μg/ml) was >32 µg/mL and the MIC (PAE UFR48; [1]) was > 512 µg/mL. For the same compound, the “MIC ATB combined with Example 1 @8 μg/ml” value (PAE UFR90; with Example 1 @8 μg/ml) was <0.031 µg/mL, the “MIC ATB combined with Example 1 @8 μg/ml” value (PAE UFR90; with Example 1 at 8 μg/ml) was <0.031 µg/mL and the “MIC ATB combined with Example 7 @8 μgml” value (PAE UFR90; with Example 7 at 8 μg/ml) was >32 µg/mL. For the same compound, the “MIC ATB combined with Example 9 @4 μg/ml” value (PAE UFR90; with Example 9 @4 μg/ml) was >32 µg/mL, the “MIC ATB combined with Example 9 @4 μg/ml” value (PAE UFR90; with Example 9 at 4 μg/ml) was >32 µg/mL and the “MIC ATB combined with Example 11 @8 μg/ml” value (PAE UFR90; with Example 11 at 8 μg/ml) was >32 µg/mL. For the same compound, the “MIC ATB combined with Example 12 @8 μg/ml” value (PAE UFR90; with Example 12 at 8 μg/ml) was >32 µg/mL, the “MIC ATB combined with Example 13 @8 μg/ml” value (PAE UFR90; with Example 13 at 8 μg/ml) was >32 µg/mL and the “MIC ATB combined with Example 14 @8 μg/ml” value (PAE UFR90; with Example 14 at 8 μg/ml) was >32 µg/mL. The “MIC ATB combined with Example 15 @4 μgml” value (PAE UFR90; with Example 15 at 4 μg/ml) was >32 µg/mL, the “MIC ATB combined with Example 16 @4 μg/ml” value (PAE UFR90; with Example 16 at 4 μg/ml) was >32 µg/mL and the MIC (PAE UFR90; [1]) was > 32 µg/mL. For the same compound, the “MIC ATB combined with Example 1 @8 μg/ml” value (SAU 29213; with Example 1 @8 μg/ml) was 16 µg/mL, the “MIC ATB combined with Example 1 @8 μg/ml” value (SAU 29213; with Example 1 at 8 μg/ml) was 16 µg/mL and the “MIC ATB combined with Example 7 @8 μgml” value (SAU 29213; with Example 7 at 8 μg/ml) was 8 µg/mL. The “MIC ATB combined with Example 9 @4 μg/ml” value (SAU 29213; with Example 9 @4 μg/ml) was “<=0.031 μg/mL”, the “MIC ATB combined with Example 9 @4 μg/ml” value (SAU 29213; with Example 9 at 4 μg/ml) was “<=0.031 μg/mL” and the “MIC ATB combined with Example 11 @8 μg/ml” value (SAU 29213; with Example 11 at 8 μg/ml) was 0.125 µg/mL. For the same compound, the “MIC ATB combined with Example 12 @8 μg/ml” value (SAU 29213; with Example 12 at 8 μg/ml) was <0.031 µg/mL, the “MIC ATB combined with Example 13 @8 μg/ml” value (SAU 29213; with Example 13 at 8 μg/ml) was 4 µg/mL and the “MIC ATB combined with Example 14 @8 μg/ml” value (SAU 29213; with Example 14 at 8 μg/ml) was <0.031 µg/mL. The “MIC ATB combined with Example 15 @4 μgml” value (SAU 29213; with Example 15 at 4 μg/ml) was <0.031 µg/mL, the “MIC ATB combined with Example 16 @4 μg/ml” value (SAU 29213; with Example 16 at 4 μg/ml) was <0.031 µg/mL and the MIC (SAU 29213; Staphylococcus aureus, antibiotic alone, read-out: MIC ATB alone) was 16 µg/mL. For the same compound, the “MIC ATB combined with Example 1 @8 μg/ml” value (SPN 49619; with Example 1 @8 μg/ml) was 1 µg/mL, the “MIC ATB combined with Example 1 @8 μg/ml” value (SPN 49619; with Example 1 at 8 μg/ml) was 1 µg/mL and the “MIC ATB combined with Example 7 @8 μgml” value (SPN 49619; with Example 7 at 8 μg/ml) was 1 µg/mL. The “MIC ATB combined with Example 9 @4 μg/ml” value (SPN 49619; with Example 9 @4 μg/ml) was 0.25 µg/mL, the “MIC ATB combined with Example 9 @4 μg/ml” value (SPN 49619; with Example 9 at 4 μg/ml) was 0.25 µg/mL and the “MIC ATB combined with Example 11 @8 μg/ml” value (SPN 49619; with Example 11 at 8 μg/ml) was 0.25 µg/mL. The “MIC ATB combined with Example 12 @8 μg/ml” value (SPN 49619; with Example 12 at 8 μg/ml) was <0.031 µg/mL, the “MIC ATB combined with Example 13 @8 μg/ml” value (SPN 49619; with Example 13 at 8 μg/ml) was 0.5 µg/mL and the “MIC ATB combined with Example 14 @8 μg/ml” value (SPN 49619; with Example 14 at 8 μg/ml) was <0.031 µg/mL. The “MIC ATB combined with Example 15 @4 μgml” value (SPN 49619; with Example 15 at 4 μg/ml) was 0.25 µg/mL, the “MIC ATB combined with Example 16 @4 μg/ml” value (SPN 49619; with Example 16 at 4 μg/ml) was <0.031 µg/mL and the MIC (SPN 49619; Streptococcus pneumoniae, antibiotic alone, read-out: MIC ATB alone) was 1 µg/mL.
